System: E. coli strain W3110
Assay: Synergy assays: Biolog chemical sensitivity panels with Group IB metal, coefficient of drug interaction (CDI) from relative growth
Type: cell-based
Conditions: for CDI (coefficient of drug interaction), copper mixed with biocide: Copper (mM) section; for CDI (coefficient of drug interaction): Gold section of Table 5; for CDI (coefficient of drug interaction), silver + biocide: E. coli
[1] = 1st of 3 copper concentrations (value not shown), 1st of four biocide concentrations
[2] = 1st of 3 copper concentrations (value not shown), 2nd of four biocide concentrations
[3] = 1st of 3 copper concentrations (value not shown), 3rd of four biocide concentrations
[4] = 1st of 3 copper concentrations (value not shown), 4th of four biocide concentrations
[5] = 2nd of 3 copper concentrations (value not shown), 1st of four biocide concentrations
[6] = 2nd of 3 copper concentrations (value not shown), 2nd of four biocide concentrations
[7] = 2nd of 3 copper concentrations (value not shown), 3rd of four biocide concentrations
[8] = 2nd of 3 copper concentrations (value not shown), 4th of four biocide concentrations
[9] = 3rd of 3 copper concentrations (value not shown), 1st of four biocide concentrations
[10] = 3rd of 3 copper concentrations (value not shown), 2nd of four biocide concentrations
[11] = 3rd of 3 copper concentrations (value not shown), 3rd of four biocide concentrations
[12] = 3rd of 3 copper concentrations (value not shown), 4th of four biocide concentrations
[13] = first of three gold concentrations (μM, value not given), biocide concentration 1 of 4
[14] = first of three gold concentrations (μM, value not given), biocide concentration 2 of 4
[15] = first of three gold concentrations (μM, value not given), biocide concentration 3 of 4
[16] = first of three gold concentrations (μM, value not given), biocide concentration 4 of 4
[17] = second of three gold concentrations (μM, value not given), biocide concentration 1 of 4
[18] = second of three gold concentrations (μM, value not given), biocide concentration 2 of 4
[19] = second of three gold concentrations (μM, value not given), biocide concentration 3 of 4
[20] = second of three gold concentrations (μM, value not given), biocide concentration 4 of 4
[21] = third of three gold concentrations (μM, value not given), biocide concentration 1 of 4
[22] = third of three gold concentrations (μM, value not given), biocide concentration 2 of 4
[23] = third of three gold concentrations (μM, value not given), biocide concentration 3 of 4
[24] = Silver 0.5 μM, 1st of four biocide concentrations
[25] = Silver 0.5 μM, 2nd of four biocide concentrations
[26] = Silver 0.5 μM, 3rd of four biocide concentrations
[27] = Silver 0.5 μM, 4th of four biocide concentrations
[28] = Silver 1.0 μM, 1st of four biocide concentrations
[29] = Silver 1.0 μM, 2nd of four biocide concentrations
[30] = Silver 1.0 μM, 3rd of four biocide concentrations
[31] = Silver 1.0 μM, 4th of four biocide concentrations
[32] = Silver 5.0 μM, 1st of four biocide concentrations
[33] = Silver 5.0 μM, 2nd of four biocide concentrations
[34] = Silver 5.0 μM, 3rd of four biocide concentrations
[35] = Silver 5.0 μM, 4th of four biocide concentrations
[36] = third of three gold concentrations (μM, value not given), biocide concentration 4 of 4

SMILES | CDI (coefficient of drug interaction), copper mixed with biocide [1] | CDI (coefficient of drug interaction), copper mixed with biocide [2] | CDI (coefficient of drug interaction), copper mixed with biocide [3] | CDI (coefficient of drug interaction), copper mixed with biocide [4] | CDI (coefficient of drug interaction), copper mixed with biocide [5] | CDI (coefficient of drug interaction), copper mixed with biocide [6] | CDI (coefficient of drug interaction), copper mixed with biocide [7] | CDI (coefficient of drug interaction), copper mixed with biocide [8] | CDI (coefficient of drug interaction), copper mixed with biocide [9] | CDI (coefficient of drug interaction), copper mixed with biocide [10] | CDI (coefficient of drug interaction), copper mixed with biocide [11] | CDI (coefficient of drug interaction), copper mixed with biocide [12] | CDI (coefficient of drug interaction) [14] | CDI (coefficient of drug interaction) [15] | CDI (coefficient of drug interaction) [16] | CDI (coefficient of drug interaction) [18] | CDI (coefficient of drug interaction) [20] | CDI (coefficient of drug interaction), silver + biocide [27] | CDI (coefficient of drug interaction), silver + biocide [31] | CDI (coefficient of drug interaction), silver + biocide [35] | also measured
CCCCCCCCCCCC[N+](C)(C)CCCS(=O)(=O)O [lauryl sulfobetaine] | 0.96 | 1.18 | 0.80 | 0.21 | 0.60 | 1.39 | 0.72 | 0.48 | 0.48 | 0.80 | 0.34 | 0.07 | 1.26 | 0.86 | 0.99 | 0.87 | 1.09 | Tox | Tox | Tox | CDI (coefficient of drug interaction) [13]: 0.86; CDI (coefficient of drug interaction) [17]: 0.96; CDI (coefficient of drug interaction) [19]: 1.00; CDI (coefficient of drug interaction) [21]: 1.13; CDI (coefficient of drug interaction) [22]: 1.04; CDI (coefficient of drug interaction) [23]: 0.96; CDI (coefficient of drug interaction), silver + biocide [24]: 0.83; CDI (coefficient of drug interaction), silver + biocide [25]: 0.56; CDI (coefficient of drug interaction), silver + biocide [26]: Tox; CDI (coefficient of drug interaction), silver + biocide [28]: 0.91; CDI (coefficient of drug interaction), silver + biocide [29]: 0.79; CDI (coefficient of drug interaction), silver + biocide [30]: Tox; CDI (coefficient of drug interaction), silver + biocide [32]: 1.42; CDI (coefficient of drug interaction), silver + biocide [33]: 1.41; CDI (coefficient of drug interaction), silver + biocide [34]: Tox
CC(C)c1nc2nc(N)nc(N)c2nc1C(C)C [2,4-Diamino-6,7-diisopropylpteridine] |  |  |  | Tox |  |  |  | Tox |  |  |  | Tox |  |  | Tox |  | Tox | Tox | Tox | Tox | CDI (coefficient of drug interaction) [36]: Tox
CCCCCCCC[N+](C)(CCCCCCCC)CCCCCCCC.[Br-] [Methyltrioctyl NH4+ Br−] | 1.05 | 1.22 | 1.39 | Tox | 1.08 | 1.14 | 1.05 | Tox | 0.87 | 0.80 | 0.44 | Tox | 1.05 | 1.00 | Tox | 0.98 | Tox | Tox | Tox | Tox | CDI (coefficient of drug interaction) [13]: 1.06; CDI (coefficient of drug interaction) [17]: 1.14; CDI (coefficient of drug interaction) [19]: 0.37; CDI (coefficient of drug interaction) [21]: 0.96; CDI (coefficient of drug interaction) [22]: 1.01; CDI (coefficient of drug interaction) [23]: 0.91; CDI (coefficient of drug interaction) [36]: Tox; CDI (coefficient of drug interaction), silver + biocide [24]: 1.01; CDI (coefficient of drug interaction), silver + biocide [25]: 0.90; CDI (coefficient of drug interaction), silver + biocide [26]: Tox; CDI (coefficient of drug interaction), silver + biocide [28]: 1.04; CDI (coefficient of drug interaction), silver + biocide [29]: 1.09; CDI (coefficient of drug interaction), silver + biocide [30]: Tox; CDI (coefficient of drug interaction), silver + biocide [32]: 1.66; CDI (coefficient of drug interaction), silver + biocide [33]: 1.73; CDI (coefficient of drug interaction), silver + biocide [34]: Tox
O=C1C=C2C(=CCOC2O)O1 (centres unmarked) [patulin] | Tox | Tox | Tox | Tox | Tox | Tox | Tox | Tox | Tox | Tox | Tox | Tox | Tox | Tox | Tox | Tox | Tox | Tox | Tox | Tox | CDI (coefficient of drug interaction) [19]: Tox; CDI (coefficient of drug interaction) [22]: Tox; CDI (coefficient of drug interaction) [23]: Tox; CDI (coefficient of drug interaction) [36]: Tox; CDI (coefficient of drug interaction), silver + biocide [25]: Tox; CDI (coefficient of drug interaction), silver + biocide [26]: Tox; CDI (coefficient of drug interaction), silver + biocide [29]: Tox; CDI (coefficient of drug interaction), silver + biocide [30]: Tox; CDI (coefficient of drug interaction), silver + biocide [33]: Tox; CDI (coefficient of drug interaction), silver + biocide [34]: Tox
